# Laboratory results taken from ChEMBL document CHEMBL2434952, “Morphological changes of some pathogenic microbial strains induced by novel thiadiazole derivatives” (2013).
# Active and inactive are the calls of the source. The calls are words filed in the database; no cut-off is given here.
# What was measured:
# Candida albicans [1] = test: Antifungal activity against Candida albicans assessed as growth inhibition measured after 24 to 48 hrs by agar disk diffusion method; assay type: functional, organism-based
# Bacillus cereus [2] = test: Antibacterial activity against Bacillus cereus assessed as shortening of cell surface at MIC by scanning electron microscopic analysis; assay type: functional, organism-based
# Bacillus cereus [3] = test: Antibacterial activity against Bacillus cereus assessed as growth inhibition measured for 24 hrs by agar streak dilution method in absence of 24.4 Gy gamma-irradiation; assay type: functional; conditions: light or radiation study
# [4] = system: Staphylococcus epidermidis; test: Antibacterial activity against Staphylococcus epidermidis assessed as growth inhibition measured after 24 to 48 hrs by agar disk diffusion method in absence of 24.4 Gy gamma-irradiation; assay type: functional
# [5] = system: Staphylococcus epidermidis; test: Antibacterial activity against Staphylococcus epidermidis assessed as growth inhibition measured after 24 to 48 hrs by agar disk diffusion method in presence of 24.4 Gy gamma-irradiation; assay type: functional
# Staphylococcus aureus [6] = test: Antibacterial activity against Staphylococcus aureus assessed as growth inhibition measured after 24 to 48 hrs by agar disk diffusion method in presence of 24.4 Gy gamma-irradiation; assay type: functional
# Staphylococcus aureus [7] = test: Antibacterial activity against Staphylococcus aureus assessed as growth inhibition measured for 24 hrs by agar streak dilution method in presence of 24.4 Gy gamma-irradiation; assay type: functional; conditions: light or radiation study
# Staphylococcus aureus [8] = test: Antibacterial activity against Staphylococcus aureus assessed as appearance of projected cellular material and membrane blebbing at MIC by scanning electron microscopic analysis; assay type: functional, organism-based
# Staphylococcus aureus [9] = test: Antibacterial activity against Staphylococcus aureus assessed as elongation of cell surface at MIC by scanning electron microscopic analysis in presence of 24.4 Gy gamma-irradiation; assay type: functional, organism-based
# Staphylococcus aureus [10] = test: Antibacterial activity against Staphylococcus aureus assessed as deformity of cell surface at MIC by scanning electron microscopic analysis in presence of 24.4 Gy gamma-irradiation; assay type: functional, organism-based
# Bacillus cereus [11] = test: Antibacterial activity against Bacillus cereus assessed as septum disappearance at MIC by scanning electron microscopic analysis; assay type: functional, organism-based
# Klebsiella pneumoniae [12] = test: Antibacterial activity against Klebsiella pneumoniae assessed as growth inhibition measured after 24 to 48 hrs by agar disk diffusion method; assay type: functional, organism-based
# Pseudomonas aeruginosa [13] = test: Antibacterial activity against Pseudomonas aeruginosa assessed as growth inhibition measured after 24 to 48 hrs by agar disk diffusion method; assay type: functional, organism-based
# Bacillus cereus [14] = test: Antibacterial activity against Bacillus cereus assessed as growth inhibition measured after 24 to 48 hrs by agar disk diffusion method in presence of 24.4 Gy gamma-irradiation; assay type: functional
# Staphylococcus aureus [15] = test: Antibacterial activity against Staphylococcus aureus assessed as growth inhibition measured for 24 hrs by agar streak dilution method in absence of 24.4 Gy gamma-irradiation; assay type: functional; conditions: light or radiation study
# Staphylococcus aureus [16] = test: Antibacterial activity against Staphylococcus aureus assessed as growth inhibition measured after 24 to 48 hrs by agar disk diffusion method in absence of 24.4 Gy gamma-irradiation; assay type: functional
# Bacillus cereus [17] = test: Antibacterial activity against Bacillus cereus assessed as growth inhibition measured after 24 to 48 hrs by agar disk diffusion method in absence of 24.4 Gy gamma-irradiation; assay type: functional
# Bacillus cereus [18] = test: Antibacterial activity against Bacillus cereus assessed as growth inhibition measured after 24 to 48 hrs by agar disk diffusion method; assay type: functional
# Bacillus cereus [19] = test: Antibacterial activity against Bacillus cereus assessed as aggregation of cellular material at poles at MIC by scanning electron microscopic analysis; assay type: functional, organism-based
# Staphylococcus aureus [20] = test: Antibacterial activity against Staphylococcus aureus assessed as septum disappearance at MIC by scanning electron microscopic analysis; assay type: functional, organism-based
# [21] = system: Staphylococcus epidermidis; test: Antibacterial activity against Staphylococcus epidermidis assessed as growth inhibition measured after 24 to 48 hrs by agar disk diffusion method; assay type: functional
# Bacillus cereus [22] = test: Antibacterial activity against Bacillus cereus assessed as elongation of cell surface at MIC by scanning electron microscopic analysis; assay type: functional, organism-based
# Staphylococcus aureus [23] = test: Antibacterial activity against Staphylococcus aureus assessed as growth inhibition measured after 24 to 48 hrs by agar disk diffusion method; assay type: functional
# Klebsiella pneumoniae [24] = test: Antibacterial activity against Klebsiella pneumoniae assessed as growth inhibition at 30 ug/disk measured after 24 to 48 hrs by agar disk diffusion method; assay type: functional; conditions: read-out: IZ
# [25] = system: Staphylococcus epidermidis; test: Antibacterial activity against Staphylococcus epidermidis assessed as growth inhibition at 30 ug/disk measured after 24 to 48 hrs by agar disk diffusion method in presence of 24.4 Gy gamma-irradiation; assay type: functional; conditions: light or radiation study, read-out: IZ
# Staphylococcus aureus [26] = test: Antibacterial activity against Staphylococcus aureus assessed as growth inhibition at 30 ug/disk measured after 24 to 48 hrs by agar disk diffusion method in presence of 24.4 Gy gamma-irradiation; assay type: functional; conditions: light or radiation study, read-out: IZ
# Staphylococcus aureus [27] = test: Antibacterial activity against Staphylococcus aureus assessed as growth inhibition at 30 ug/disk measured after 24 to 48 hrs by agar disk diffusion method in absence of 24.4 Gy gamma-irradiation; assay type: functional; conditions: light or radiation study, read-out: IZ
# Pseudomonas aeruginosa [28] = test: Antibacterial activity against Pseudomonas aeruginosa assessed as growth inhibition at 30 ug/disk measured after 24 to 48 hrs by agar disk diffusion method; assay type: functional; conditions: read-out: IZ
# Bacillus cereus [29] = test: Antibacterial activity against Bacillus cereus assessed as growth inhibition at 30 ug/disk measured after 24 to 48 hrs by agar disk diffusion method; assay type: functional; conditions: read-out: IZ
# Bacillus cereus [30] = test: Antibacterial activity against Bacillus cereus assessed as growth inhibition at 30 ug/disk measured after 24 to 48 hrs by agar disk diffusion method in absence of 24.4 Gy gamma-irradiation; assay type: functional; conditions: light or radiation study, read-out: IZ
# Bacillus cereus [31] = test: Antibacterial activity against Bacillus cereus assessed as growth inhibition at 30 ug/disk measured after 24 to 48 hrs by agar disk diffusion method in presence of 24.4 Gy gamma-irradiation; assay type: functional; conditions: light or radiation study, read-out: IZ
# [32] = system: Staphylococcus epidermidis; test: Antibacterial activity against Staphylococcus epidermidis assessed as growth inhibition at 30 ug/disk measured after 24 to 48 hrs by agar disk diffusion method in absence of 24.4 Gy gamma-irradiation; assay type: functional; conditions: light or radiation study, read-out: IZ
# Staphylococcus aureus [33] = test: Antibacterial activity against Staphylococcus aureus assessed as growth inhibition at 30 ug/disk measured after 24 to 48 hrs by agar disk diffusion method; assay type: functional; conditions: read-out: IZ
# [34] = system: Staphylococcus epidermidis; test: Antibacterial activity against Staphylococcus epidermidis assessed as growth inhibition at 30 ug/disk measured after 24 to 48 hrs by agar disk diffusion method; assay type: functional; conditions: read-out: IZ
# Candida albicans [35] = test: Antifungal activity against Candida albicans assessed as growth inhibition at 30 ug/disk measured after 24 to 48 hrs by agar disk diffusion method; assay type: functional, organism-based
Compound,growth inhibition (GI) (Candida albicans [1]),inhibition zone (IZ) [4],inhibition zone (IZ) [5],inhibition zone (IZ) (Staphylococcus aureus [6]),growth inhibition (GI) (Klebsiella pneumoniae [12]),growth inhibition (GI) (Pseudomonas aeruginosa [13]),inhibition zone (IZ) (Bacillus cereus [14]),inhibition zone (IZ) (Staphylococcus aureus [16]),inhibition zone (IZ) (Bacillus cereus [17]),inhibition zone (IZ) (Bacillus cereus [18]),inhibition zone (IZ) [21],inhibition zone (IZ) (Staphylococcus aureus [23]),further results
N#Cc1c(-c2ccccc2)cn(-c2n[nH]c(=S)s2)c1N,inactive,12 mm,25 mm,19 mm,inactive,inactive,25 mm,20 mm,25 mm,20 mm,17 mm,25 mm,Activity (Bacillus cereus [2]): Active; MIC (Bacillus cereus [3]): 250 µg/mL; MIC (Staphylococcus aureus [7]): 250 µg/mL; Activity (Staphylococcus aureus [8]): Active; Activity (Staphylococcus aureus [9]): Active; Activity (Staphylococcus aureus [10]): Active; Activity (Bacillus cereus [11]): Active; MIC (Staphylococcus aureus [15]): 125 µg/mL; Activity (Bacillus cereus [19]): Active; Activity (Staphylococcus aureus [20]): Active; Activity (Bacillus cereus [22]): Active
NS(=O)(=O)c1ccc(NC(=S)Nc2n[nH]c(=S)s2)cc1,inactive,6 mm,10 mm,10 mm,inactive,inactive,10 mm,10 mm,7 mm,7 mm,inactive,9 mm,–
NCC[C@H](O)C(=O)N[C@@H]1C[C@H](N)[C@@H](O[C@H]2O[C@H](CN)[C@@H](O)[C@H](O)[C@H]2O)[C@H](O)[C@H]1O[C@H]1O[C@H](CO)[C@@H](O)[C@H](N)[C@H]1O [AMIKACIN],–,–,–,–,–,–,–,–,–,–,–,–,zone of inhibition at 30 µg/disc (Klebsiella pneumoniae [24]): 11 mm; zone of inhibition at 30 µg/disc [25]: 25 mm; zone of inhibition at 30 µg/disc (Staphylococcus aureus [26]): 17 mm; zone of inhibition at 30 µg/disc (Staphylococcus aureus [27]): 20 mm; zone of inhibition at 30 µg/disc (Pseudomonas aeruginosa [28]): 15 mm; zone of inhibition at 30 µg/disc (Bacillus cereus [29]): 20 mm; zone of inhibition at 30 µg/disc (Bacillus cereus [30]): 20 mm; zone of inhibition at 30 µg/disc (Bacillus cereus [31]): 20 mm; zone of inhibition at 30 µg/disc [32]: 24 mm; zone of inhibition at 30 µg/disc (Staphylococcus aureus [33]): 20 mm; zone of inhibition at 30 µg/disc [34]: 25 mm
O=C1CSC(Nc2n[nH]c(=S)s2)=N1,inactive,7 mm,7 mm,15 mm,inactive,inactive,11 mm,12 mm,11 mm,9 mm,7 mm,10 mm,–
O=C(CNc1n[nH]c(=S)s1)c1ccccc1,inactive,12 mm,20 mm,20 mm,inactive,inactive,15 mm,20 mm,15 mm,18 mm,15 mm,20 mm,–
NYSTATIN,–,–,–,–,–,–,–,–,–,–,–,–,inhibition zone (IZ) (Candida albicans [35]): 7 mm
O=C(CCl)Nc1n[nH]c(=S)s1,inactive,–,–,–,inactive,inactive,–,–,–,inactive,inactive,inactive,–
S=c1[nH]nc(/N=C/c2ccccc2Cl)s1,inactive,13 mm,13 mm,16 mm,inactive,inactive,16 mm,16 mm,20 mm,22 mm,12 mm,20 mm,–
CC(=O)N(C(C)=O)c1n[nH]c(=S)s1,inactive,11 mm,15 mm,17 mm,inactive,inactive,20 mm,20 mm,11 mm,20 mm,13 mm,20 mm,–
O=C(Nc1ccccc1)Nc1nnc(S)s1,inactive,7 mm,10 mm,10 mm,inactive,inactive,9 mm,7 mm,7 mm,7 mm,9 mm,10 mm,–
O=CN(C=O)c1n[nH]c(=S)s1,inactive,13 mm,13 mm,16 mm,inactive,inactive,20 mm,20 mm,13 mm,22 mm,20 mm,20 mm,–
O=C(Nc1ccccc1)Sc1nnc(N(C(=O)Nc2ccccc2)C(=O)Nc2ccccc2)s1,inactive,8 mm,12 mm,7 mm,inactive,inactive,9 mm,7 mm,7 mm,7 mm,7 mm,15 mm,–
